Patent publication US11826373B2, “Methods for treatment of diseases” (Galera Labs, LLC, priority 2011, dated 2023)

Key:
Rats [1] = assay: Rat GC4419 14-day IV study; format: in vivo; conditions: 20 mg/kg, Days 1 or 2
Protocol: (§1) GC4419 was evaluated in a 14-day GLP study in rats. GC4419 was administered to rats (10/sex/group) as 15 minute IV injections at dosages of 0, 5, 10 or 20 (15) mg/kg/day for 14 days. The control group received vehicle (sodium citrate in normal saline). Due to mortality at 20 mg/kg/day, the high dose group was decreased to 15 mg/kg/day on Day 3. Evaluations for compound-related effects were based on clinical observations, body weight, food consumption, hematology and clinical chemistry parameters, functional observation battery, organ weights and gross and microscopic postmortem examinations. […] There were no compound-related changes in organ weights or macroscopic or microscopic pathology. Based on the results of this study the NOAEL for GC4419 when administered to rats for 14 days as a 15 minute IV infusion was 15 mg/kg/day.

[2] = Rat GC4419 14-day IV study; format: in vivo; conditions: both sexes, rat, in vivo; rats, 15 minute IV infusion, 14 days
Protocol: as §1

[3] = Human Phase 1 pharmacokinetics of GC4419; conditions: both sexes, in vivo
Protocol: A human clinical trial entitled, “A Double-Blind, Placebo-Controlled, Single Rising Dose Study to Evaluate the Safety and Tolerability and Determine the Pharmacokinetics of M40419 Administered as a I5-Minute Intravenous Infusion in Healthy Subjects,” was conducted on 54 subjects. This was a single center, randomized, placebo-controlled, sequential panel, single dose safety, tolerability, and pharmacokinetic study of GC4419 administered as a 75-mL IV infusion over 15 minutes in escalating doses of 10 mg, 15 mg, 22 mg, 33 mg, 50 mg, 75 mg, and 112 mg. The study consisted of two phases: the first phase was a dose escalation with six subjects (four active and two placebo) in each cohort to determine a Maximum Tolerated Dose (MTD); the second phase was a repeat of the MTD dose in 12 subjects (eight active drug and four placebo) to confirm the MTD or safety of highest dose tested. The study population was comprised of 54 healthy male and female subjects (36 males, 18 females) between the ages of 18 and 50 years considered eligible on the basis of inclusion and exclusion criteria. There were four active and two placebo subjects for each dose level in the escalating dose phase of the study, and eight active and four placebo subjects for the confirmation of MTD phase.
As part of the conduct of the Phase 1a clinical studies for GC4403 and GC4419 described in the Examples herein, plasma samples were collected for measuring the concentration of parent compounds (GC4403 and GC4419) after intravenous infusion. Table 3 illustrates the pharmacokinetic parameter, area under the curve (AUC), representing the total exposure of the subject to the drugs over time.

Rats [4] = assay: Rat GC4419 7-day IV study; format: in vivo
Protocol: A GLP toxicity study with GC4419 in bicarbonate buffer was performed. Rats (5/sex/group) were administered GC4419 as a 15 minute IV injection (4 mL/kg) at 0, 5, 10 or 15 mg/kg for 7 consecutive days. The control group received bicarbonate buffer. Evaluations for compound-related effects were based on clinical observations, body weight and food consumption. There were no deaths during the study and there were no signs of significant compound effects at any dosage.

Sprague-Dawley rats = assay: Rat GC4403 28-day IV toxicology; format: in vivo; conditions: 28 days
Protocol: GC4403 was evaluated in a 28-day GLP study in Sprague-Dawley rats. GC4403 was administered to rats (10/sex/group) as slow-bolus IV injections at dosages of 0, 1, 3 or 6 mg/kg/day for 28 days. The control (0 dose) group received vehicle (26 mM sodium bicarbonate in normal saline). Evaluations for compound-related effects were based on clinical observations, body weight, food consumption, hematology and clinical chemistry parameters, functional observation battery, organ weights and gross and microscopic postmortem examinations. There were no compound-related changes in organ weights or macroscopic or microscopic pathology. Based on the results of this study, the NOTEL for GC4403, when administered to rats for 28 days as an IV infusion was 3 mg/kg/day.

beagle dogs = assay: GC4403 28-day IV toxicity in dog; format: in vivo; conditions: 28 days
Protocol: (§2) GC4403 was evaluated in a Good Laboratory Practice (GLP)-regulated study in beagle dogs. GC4403 was administered intravenously (IV) via slow bolus dose, once daily, to beagle dogs for 28 consecutive days. GC4403 was administered IV into the cephalic vein (0.5 mL/kg) to 3 groups of dogs (4 animals/sex/group) at dosages of 1.0, 3.0 and 6.0 mg/kg with a fourth group receiving vehicle (26 mM sodium bicarbonate in normal saline). […] There were no test article-related differences in group mean hematology, coagulation, or clinical chemistry parameters or urinalysis parameters after 28 days of treatment in any dosing group. At necropsy on day 29, there were neither test-article related gross macroscopic findings nor test-article-related differences in organ weight. No test-article-related histopathological lesions were present. There were no test-article-related electrocardiology (ECG) effects when evaluated on day 27.

[5] = GC4403 28-day IV toxicity in dog; format: in vivo; conditions: both sexes, dog, in vivo; beagle dogs, IV, 28 consecutive days; read-out: no observed adverse effect level (NOAEL)
Protocol: as §2

Compound	mortality (Rats [1])	NOAEL at 14 days [2]	AUC(0-inf) ([3]; 10 mg IV over 15 minutes)	AUC(0-inf) ([3]; 15 mg IV over 15 minutes)	AUC(0-inf) ([3]; 22 mg IV over 15 minutes)	AUC(0-inf) ([3]; 33 mg IV over 15 minutes)	AUC(0-inf) ([3]; 50 mg IV over 15 minutes)	AUC(0-inf) ([3]; 75 mg IV over 15 minutes)	AUC(0-inf) ([3]; 112 mg IV over 15 minutes)	decrease in body weight (Rats [4]; males given 15 mg/kg/day, by Day 8)	mortality (Rats [4]; rats, 5, 10 or 15 mg/kg, 7 days)	NOTEL (Rats [4]; rats, males and females, 15 minute IV injection, 7 consecutive days)	NOTEL (Sprague-Dawley rats)	mortality (beagle dogs; beagle dogs, 1.0, 3.0 and 6.0 mg/kg IV)	no observed toxic effect level (NOTEL) (beagle dogs; both, beagle, dog, in vivo, iv)	NOAEL at 28 days [5]
[Cl][Mn-5]1234([Cl])[n+]5c6cccc5C[NH+]1[C@H]1CCCC[C@@H]1[NH+]2CC[NH+]3[C@H]1CCCC[C@@H]1[NH+]4C6 (stereo partly shown) [GC4419]	Several rats died	15 mg/kg/day	741 ng·h/mL	1300 ng·h/mL	2000 ng·h/mL	3190 ng·h/mL	4560 ng·h/mL	6490 ng·h/mL	10400 ng·h/mL	approximately 10%	no deaths	15 mg/kg	–	–	–	–
[Cl][Mn-5]1234([Cl])[n+]5c6cccc5C[NH+]1[C@@H]1CCCC[C@H]1[NH+]2CC[NH+]3[C@@H]1CCCC[C@H]1[NH+]4C6 (stereo partly shown) [GC4403]	–	–	–	–	–	–	–	–	–	–	–	–	3 mg/kg/day	No animals died	3.0 mg/kg/day	1 mg/kg/day
